PubChem BioAssay (NCI)
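Test compounds were applied to cells in 96-well plates for 48 hours at 5 doses. TGI denotes the concentration required for complete inhibition of growth.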

Tests used:
Assay in all cases: NCI tumour cell line growth inhibition, 48 h
MDA-N = system: MDA-N
SK-OV-3 ovarian = system: SK-OV-3 ovarian
OVCAR-5 ovarian = system: OVCAR-5 ovarian
A549 NSCLC = system: A549 NSCLC
UO-31 renal = system: UO-31 renal
IGROV1 ovarian = system: IGROV1 ovarian
MOLT-4 leukemia = system: MOLT-4 leukemia
DU-145 prostate = system: DU-145 prostate
CAKI-1 renal = system: CAKI-1 renal
CCRF-CEM leukemia = system: CCRF-CEM leukemia
ACHN renal = system: ACHN renal
PC-3 prostate = system: PC-3 prostate
HT29 colon = system: HT29 colon
NCI-H23 lung = system: NCI-H23 lung
KM12 colon = system: KM12 colon
U251 CNS = system: U251 CNS
HOP-62 NSCLC = system: HOP-62 NSCLC
HCT-116 colon = system: HCT-116 colon
HCT-15 colon = system: HCT-15 colon
SW-620 colon = system: SW-620 colon
SNB-75 CNS = system: SNB-75 CNS
SK-MEL-2 melanoma = system: SK-MEL-2 melanoma
RXF 393 renal = system: RXF 393 renal
UACC-62 melanoma = system: UACC-62 melanoma
HS 578T breast = system: HS 578T breast
HOP-92 NSCLC = system: HOP-92 NSCLC
MDA-MB-435 = system: MDA-MB-435
M14 melanoma = system: M14 melanoma
MDA-MB-231 breast = system: MDA-MB-231 breast
OVCAR-8 ovarian = system: OVCAR-8 ovarian
NCI-H226 lung = system: NCI-H226 lung
786-0 renal = system: 786-0 renal
SK-MEL-5 melanoma = system: SK-MEL-5 melanoma
NCI-H460 lung = system: NCI-H460 lung
SF-539 CNS = system: SF-539 CNS
NCI/ADR-RES ovarian = system: NCI/ADR-RES ovarian
UACC-257 melanoma = system: UACC-257 melanoma
EKVX NSCLC = system: EKVX NSCLC
A498 renal = system: A498 renal
COLO 205 colon = system: COLO 205 colon
HL-60(TB) leukemia = system: HL-60(TB) leukemia
MCF7 breast = system: MCF7 breast
BT-549 breast = system: BT-549 breast
LOX IMVI melanoma = system: LOX IMVI melanoma
SF-295 CNS = system: SF-295 CNS
OVCAR-3 ovarian = system: OVCAR-3 ovarian
TK-10 renal = system: TK-10 renal
OVCAR-4 ovarian = system: OVCAR-4 ovarian
SN12C renal = system: SN12C renal
NCI-H522 lung = system: NCI-H522 lung
SK-MEL-28 melanoma = system: SK-MEL-28 melanoma
SNB-19 CNS = system: SNB-19 CNS
T-47D breast = system: T-47D breast
SF-268 CNS = system: SF-268 CNS

Measured: TGI

O=c1c(NCc2ccccc2)c(C2(c3ccccc3F)SCCCS2)c1=O
> 100 µM: all assays above
